From article PMC4338435, “Design and Application of a Novel High-throughput Screening Technique for 1-Deoxynojirimycin” (Scientific Reports, 2015)

Assays:
[1] = molecular target: T1, LacS (Saccharolobus solfataricus, UniProt P22498); assay: inhibition of oNPG hydrolysis, A420; format: biochemical; design: recombinant full-length LacS; purified for in vitro assay; lacS also integrated in E. coli BW25113 (BWLacS); conditions: buffer Z, oNPG substrate, 37°C, 10 min
T1 sequence (P22498 1-489): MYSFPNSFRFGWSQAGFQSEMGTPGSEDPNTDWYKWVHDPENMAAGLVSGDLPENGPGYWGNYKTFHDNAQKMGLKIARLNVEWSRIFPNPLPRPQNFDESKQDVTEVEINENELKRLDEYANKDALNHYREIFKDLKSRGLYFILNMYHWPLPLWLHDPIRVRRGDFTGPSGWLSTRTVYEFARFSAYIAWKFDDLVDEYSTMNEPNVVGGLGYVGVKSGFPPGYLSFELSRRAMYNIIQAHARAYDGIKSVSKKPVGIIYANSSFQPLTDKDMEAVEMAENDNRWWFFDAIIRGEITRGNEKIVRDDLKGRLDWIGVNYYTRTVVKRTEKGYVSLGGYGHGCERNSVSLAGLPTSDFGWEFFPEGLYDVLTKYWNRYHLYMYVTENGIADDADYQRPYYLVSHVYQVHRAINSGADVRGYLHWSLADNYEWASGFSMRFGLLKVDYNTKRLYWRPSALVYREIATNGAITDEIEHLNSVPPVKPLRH

[2] = molecular target: T1, LacS; assay: blue-white colony assay on LB agar, E. coli BWLacS; format: cell-based; design: lacS also integrated in E. coli BW25113 (BWLacS); conditions: 40 μg/mL X-GAL, 1 mM L-arabinose

## OC[C@H]1NC[C@H](O)[C@@H](O)[C@@H]1O [1-DNJ]
[1]
  LacS inhibition rate: 1-DNJ was found able to inhibit LacS on its o-nitrophenyl-β-D-galactopyranoside (oNPG) hydrolysis activity

## OC[C@H]1NC(O)[C@@H](O)[C@@H](O)[C@@H]1O (stereo partly drawn) [MJ]
[1]; unstable MJ tested as reaction mixture of purified GutB1 with ADM and NAD+, not isolated
  LacS inhibition rate: MJ was also found to inhibit the activity of LacS (Figure S3)

## OC[C@H]1O[C@@H](Oc2c[nH]c3ccc(Br)c(Cl)c23)[C@H](O)[C@@H](O)[C@H]1O [X-GAL]
[2]
  blue-white colony assay on LB agar, E. coli BWLacS: inhibitory effect of 1-DNJ on the LacS activity toward 5-bromo-4-chloro-3-indolyl β-D-galactopyranoside (X-GAL)
